Laboratory results as given in patent publication EP0371732A1, “Dopamine-beta-hydroxylase inhibitors” (SMITHKLINE BEECHAM CORPORATION, priority 1988, dated 1990).

Columns and labels:
[1] = system: spontaneously hypertensive rats; assay: mean arterial blood pressure in spontaneously hypertensive rats, indwelling cannulae in the tail arteries; type: in vivo; conditions: 50 mg/kg intraperitoneally, compared to vehicle-treated controls
Description: Further, spontaneously hypertensive rats were treated with 1-(2-pyrrylmethyl)-1,3-dihydro-2H-imidazole-2-thione at a dose of 50 mg/kg intraperitoneally, and mean arterial blood pressure was monitored for 250 minutes using indwelling cannulae in the tail arteries. […] The maximal blood pressure reduction was approximately 35-40 mmHg.

[2] = Teresawa et al., Japan. Cir. J. 35, 339 (1971); cited from earlier work
DBH = target: T1, DBH (Homo sapiens, UniProt P09172); conditions: reported by Runti et al.; cited from earlier work
T1 sequence (P09172 1-617): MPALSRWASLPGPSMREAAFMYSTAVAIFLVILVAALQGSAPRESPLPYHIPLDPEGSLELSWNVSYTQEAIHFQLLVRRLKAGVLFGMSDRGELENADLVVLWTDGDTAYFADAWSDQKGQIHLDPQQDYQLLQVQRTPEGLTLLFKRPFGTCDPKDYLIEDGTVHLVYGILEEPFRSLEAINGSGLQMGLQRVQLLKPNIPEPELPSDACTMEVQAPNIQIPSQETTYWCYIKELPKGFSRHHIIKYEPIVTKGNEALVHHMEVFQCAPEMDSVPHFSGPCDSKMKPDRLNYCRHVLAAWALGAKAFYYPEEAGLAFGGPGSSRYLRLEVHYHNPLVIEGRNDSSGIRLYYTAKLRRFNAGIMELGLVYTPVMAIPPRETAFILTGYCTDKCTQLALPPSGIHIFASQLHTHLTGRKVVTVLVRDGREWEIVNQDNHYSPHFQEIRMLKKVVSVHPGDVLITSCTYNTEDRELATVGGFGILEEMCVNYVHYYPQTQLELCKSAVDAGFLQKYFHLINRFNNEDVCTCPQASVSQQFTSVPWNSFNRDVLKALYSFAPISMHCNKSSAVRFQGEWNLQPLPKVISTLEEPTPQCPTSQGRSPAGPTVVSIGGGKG

With `S=c1[nH]ccn1Cc1ccc[nH]1` [1-(2-Pyrrylmethyl)-1,3-dihydro-2H-imidazole-2-thione] the “time to significant blood pressure reductions following treatment” value [1] was no more than 30 min and the “maximal blood pressure reduction” value ([1]; monitored for 250 minutes, lowest blood pressures when monitoring was discontinued) was 35-40 mmHg.
For `CCCCc1ccc(C(=O)O)nc1` [Fusaric acid], the toxic effect [2] is listed as “hepatotoxic”.
For phenylpicolinic acid, the “inhibitory activity relative to fusaric acid” value (DBH) is listed as “twice the inhibitory activity of fusaric acid”.
